According to patent US10813929B2, “Treating cancer with ATR inhibitors” (VERTEX PHARMACEUTICALS INCORPORATED, priority 2011, dated 2020):

Legend:
[1] = system: primary adenocarcinoma NSCLC xenograft; assay: Primary adenocarcinoma NSCLC xenograft model; assay type: in vivo, SCID mice; details: VE-822 60 mg/kg po qd4 with cisplatin 1 or 3 mg/kg ip q7d; FIG. 20
Protocol: Tumor tissue was excised from a patient with a poorly differentiated adenocarcinoma. This tumor tissue was implanted subcutaneously in the flank of a SCID mouse and passaged twice before compound testing. For compound testing passage-two tumor tissue was implanted subcutaneously in the flank of SCID mice and tumors grown to a volume of about 200 mm^3 Cisplatin was dosed alone at either 1 or 3 mg/kg ip, once per week (ip, q7d, on day 2 of each week) for two weeks. VE-822 was dosed as a solution alone at 60 mg/kg po on 4 consecutive days per weekly cycle (qd4, dosed on days 1, 2, 3 and 4 each week). Two combination groups received cisplatin at 1 or 3 mg/kg plus VE-822 at 60 mg/kg po on the same schedule as the single agent group. A control group received vehicle alone (10% Vitamin E TPGS in water, po qd4). All drug treatment was stopped on Day 28. Vehicle, cisplatin (1 mg/kg) and VE-822 (60 mg/kg) groups were sacrificed and the remainder monitored for a further 40 days to assess tumor re-growth.
Data are mean±sem, n=9-10. […]

[2] = system: HeLa, PSN1, MiaPaca cells; assay: Radiosensitivity assays of FIGS. 8 to 12 (clonogenic survival, foci, cell cycle); assay type: cell-based
Protocol: Small scale clonogenic survival assays were performed on HeLa cells treated with the different ATR inhibitors at increasing concentrations followed by irradiation at 6 Gy. Data is plotted as decrease in clonogenic survival in relation to the DMSO-treated cells for both irradiated (SF 6 Gy, pink line) and unirradiated cells (plating efficiency, PE; blue line). A high degree of increased radiosensitivity can be seen as a large decrease in survival after irradiation accompanied by a small decrease in unirradiated survival at a specific drug concentration.
FIG. 9. […] PSN1 and MiaPaca cells were plated at low densities, treated with the drugs indicated and assessed for clonogenic survival. • B) Clonogenic survival of PSN1, MiaPaca, and MRCS cells pretreated with Compounds 821, 822, 823 and 824 drugs followed by irradiation. Cells were plated at low densities, treated with drugs indicated 1 h prior to irradiation and assessed for clonogenic survival.
MiaPaca cells were plated at low densities and drug was added at various time points in relation to the 4 Gy radiation treatment: 1 h prior to IR, 5 min after IR, 2 h or 4 h after IR; and removed at various time points. […] Clonogenic survival was assessed after 14 days. […]
FIG. 11. […] The percentage of cells containing more than a certain number of foci was quantitated. • B) Time course of DNA damage foci. […]

[3] = system: PSN-1 pancreatic cancer xenograft; assay: PSN-1 pancreatic cancer xenograft model with ionizing radiation; assay type: in vivo; details: PSN-1 xenograft; FIGS. 14 and 15
pancreatic cancer cells = assay: Cell cycle analysis by flow cytometry after irradiation; assay type: cell-based; details: 1 μM VE-821 1 h prior to 6 Gy; FIG. 7 (hypoxic), FIG. 4
Protocol: VE-821 (1 μM) was added 1 h prior to 6 Gy irradiation and left for the duration of the experiment. Cells were lifted and fixed at 12 h or 24 h after irradiation, stained with propidium iodide and analysed for cell cycle distribution by flow cytometry (n=3) Cells were pre-incubated under hypoxic (0.5% O2) conditions for 6 h and 1 μM VE-821 was added 1 h prior to irradiation (6 Gy). Cells were transferred to normoxia 1 h after irradiation and were lifted and fixed at 12 h or 24 h after irradiation, stained with propidium iodide and analysed for cell cycle distribution by flow cytometry (n=3). Cells growing in 6-well dishes were treated with 1 μM VE-821 drug 1 h prior to 6 Gy irradiation. Cells were incubated for 6 h before irradiation under oxia (21% O2) or hypoxia (0.5% O2) using tightly sealed chambers. At multiple time points, cells were lifted in trypsin and fixed in 70% ethanol and stored at 4° C. Cells were incubated with propidium iodide (50 μg/ml in PBS containing 200 μg/ml RNAse) for 1 h at room temperature and analysed by flow cytometry (FACSort, Becton Dickinson). Cell cycle phase was quantitated using ModFit Cell Cycle Analysis software.

SMILES | antitumor effects of cisplatin (tumor volume) [1] | sensitization of cancer cells to radiation therapy [2] | antitumor effects of ionizing radiation (tumor volume over time) [3] | damage-induced cell cycle checkpoints (pancreatic cancer cells)
CNCc1ccc(-c2cc(-c3nc(-c4ccc(S(=O)(=O)C(C)C)cc4)cnc3N)on2)cc1 [VE-822] | enhances the antitumor effects of cisplatin | sensitize cancer cells to radiation therapy | enhances the antitumor effects of ionizing radiation | 
CS(=O)(=O)c1ccc(-c2cnc(N)c(C(=O)Nc3ccccc3)n2)cc1 [VE-821] |  | sensitize cancer cells to radiation therapy |  | disrupts damage-induced cell cycle checkpoints
